This is an account of results in US20230173084A1, “PEPTIDE-BASED SYNTHETIC CHLORIDE ION TRANSPORTERS” (Tavanta Therapeutics Hungary Incorporated, priority 2019, published 2023).

Series [1] concerns pancreatic organoids. The experiment in a line: intracellular Cl- level (MQAE) in 3D pancreatic organoids. In kind it is cell-based. The note with it: 100 µM. As for the experimental part: To assess the biological activity of CPPs changes of intracellular Cl^— level was measured by loading HEK-293 cells with 5 µM N-(Ethoxycarbonylmethyl)-6-Methoxyquinolinium Bromide (MQAE; ThermoFischer; Catalog number: E3101) for 30 min in the presence of 0.05% Pluronic F-127. Cells were bathed with Cl^— free external solution and treated with different concentrations of CPPs at 37° C. at the perfusion rate of 2-3 ml/min. Region of interests (ROIs) were determined by the xcellence softver (Olympus) and changes of Cl^— were determined by exciting the cells with an MT20 light source equipped with a 340/11 nm excitation filter. Excitation and emission wavelengths were separated by a 400 nm beam splitter and the emitted light was captured by a Hamamatsu ORCA- ER CCD camera. One measurement per second was obtained. During further analysis the fluorescence signals were normalized to the initial fluorescence intensity (F1/F0) and expressed as normalized MQAE fluorescence (FIG. 2). […] N: 4-5 independent experiments/each tested condition.
To test the Cl^— transporting capability of CPPs in primary 3D cells, organoids were loaded with MQAE as above described and bathed in standard HEPES buffered solution (FIG. 4.). […] N: 4-5 independent experiments/each tested condition.

Series [2] can be described thus: apoptosis/necrosis detection kit, effect on cell fate. Type of series: cell-based. The note with it: human; HEK-293 cells, 100 µM, 30 min; read-out: viable cells after the incubation. How it is done: (§1) To investigate the effect of compounds according to the invention on cell fate, an apoptosis/necrosis detection kit was used according to the manufacturer’s instruction (Abcam Cat. No.: ab176750). Briefly, HEK-293 cells were incubated with various concentrations of CPPs for 30 min at 37° C. Cells were then washed 3 times and were incubated in 200 µL of Assay Buffer and loaded with CytoCalcein 450, Nuclear Green and Apopxin Deep Red at room temperature for 30-60 min. Following this, cells were washed and imaged. Images were captured using a Zeiss LSM880 confocal microscope with different channels and wavelengths according to each dye: CytoCalcein 450 (Ex/Em = 405/450 nm), Nuclear Green (Ex/Em = 490/520 nm) and Apopxin Deep Red (Ex/Em = 630/660 nm). For each condition, five images were captured and the total number of cells were counted by two independent investigators. Results are visualized in % of total cell number (live/apoptotic/necrotic) (FIG. 1). […] However, the majority of cells survived the treatment.

In series [3] the test system is HEK-293 cells. The series is described as above. In kind it is cell-based. The note with it: for apoptotic cell death: 30 min; for necrotic cell death: 30 min incubation at 37° C.; for toxicity: even in 100 µM. As for the experimental part:
as §1

The subject of series [4] is CFTR knockout mice. The series is described as follows: severity of lung fibrosis in Cftr knockout mice, nebulized treatment. Type of series: in vivo, mouse. The text has this: To assess the effect of in vivo administrated Formula (II) on lung histology parameters, this Example use Cftr^tm1UncTg(FABPCFTR)1Jaw/J mice (Jackson Laboratory, Stock No: 002364). FABP-hCFTR-CFTR bitransgenic mice harbor the FABP-hCFTR transgene [rat fatty acid binding protein 2, intestinal promoter directing expression of a human cystic fibrosis transmembrane conductance regulator (ATP-binding cassette sub-family C, member 7) gene] and a targeted knock-out mutation of the cystic fibrosis transmembrane conductance regulator homolog gene (Cftr). The mice used in this study were 8-12 weeks old and weighted 20-25 grams in the case of wild type (WT) animals and 15-17 grams in the case of CFTR knockout animals, the gender ratio was 1:1 for all groups. Experiments were carried out with adherence to the NIH guidelines and the EU directive 2010/63/EU for the protection of animals used for scientific purposes. The study was authorized by the National Scientific Ethical Committee on Animal Experimentation under license number XXI./1540/2020. Formula (II) was dissolved in physiological saline in a concentration of 10 µM. Treated mice received 400 µL Formula (II) dissolved in physiological saline solution in 5 minutes in a nebulizer in continuous oxygen flow (2L/min). Control animals received physiological saline as vehicle. The mice were grouped into 4 treatment groups as follows: wild type control (Group 1), CFTR knockout control (Group 2), wild type treated (Group 3), CFTR knockout treated (Group 4). Treatment was performed daily for 4 weeks. At the end of the experiments, mice received terminal anesthesia and the lungs were removed. Lungs were fixed for histology and trichrome staining was performed to assess lung parenchyma density and lung fibrosis. Sections were digitalized and fibrosis was scored as follows. 1388×1038 resolution pictures were taken with 10x and 40x magnification objectives with Zeiss ICc3 camera. […] Positive pixels were counted as fibrosis, negative pixels were counted as tissue. […]

Regarding `O=C(O)c1ccc(/C=C2\SC(=S)N(c3cccc(C(F)(F)F)c3)C2=O)cc1` [CFTRinh172], the “effect on the fluorescent increase after removal of extracellular Cl- (CFTR-mediated Cl- efflux)” value in series [1] is “almost completely abolished the fluorescent increase”.
With `CC[C@H](C)[C@H](NC(=O)[C@H](CCCCN)NC(=O)[C@@H](NC(=O)[C@H](CCC(N)=O)NC(=O)[C@H](CCCNC(=N)N)NC(=O)CCCCCNC(=S)Nc1cc(C(F)(F)F)cc(C(F)(F)F)c1)[C@@H](C)CC)C(=O)N[C@@H](Cc1c[nH]c2ccccc12)C(=O)N[C@@H](Cc1ccccc1)C(=O)N[C@@H](CCC(N)=O)C(=O)N[C@@H](CC(N)=O)C(=O)N[C@@H](CCCNC(=N)N)C(=O)N[C@@H](CCCNC(=N)N)C(=O)N[C@@H](CCSC)C(=O)N[C@@H](CCCCN)C(=O)N[C@@H](Cc1c[nH]c2ccccc12)C(=O)N[C@@H](CCCCN)C(=O)N[C@@H](CCCCN)C(N)=O` [Formula (II)], the viability at 0.5 h, 100 µM in series [2] is 97.3%. Also, the apoptotic cell death entry in series [3] (10 µM) is “limited rate of apoptotic cell death”. In addition, the apoptotic cell death result in series [3] (100 µM) is given as “limited rate of apoptotic cell death”. Further, in series [3], the necrotic cell death result is “no necrotic cell death was observed” and the toxicity result is given as “negligible toxicity”. Also, in series [4] (all groups, 4 weeks of daily treatment), the body weight result was “maintained their initial weights”. The “adverse events during the treatment” value in series [4] (mice, nebulized daily for 4 weeks) is listed as “no adverse events were observed”. The “clinical signs of toxicity” value in series [4] (treated animals, nebulized daily for 4 weeks) is reported as “No clinical signs of toxicity were observed”.
On to `CC[C@H](C)[C@H](NC(=O)[C@H](CCCCN)NC(=O)[C@@H](NC(=O)[C@H](CCC(N)=O)NC(=O)[C@H](CCCNC(=N)N)NC(=O)c1ccc(N=C=S)cc1)[C@@H](C)CC)C(=O)N[C@@H](Cc1c[nH]c2ccccc12)C(=O)N[C@@H](Cc1ccccc1)C(=O)N[C@@H](CCC(N)=O)C(=O)N[C@@H](CC(N)=O)C(=O)N[C@@H](CCCNC(=N)N)C(=O)N[C@@H](CCCNC(=N)N)C(=O)N[C@@H](CCSC)C(=O)N[C@@H](CCCCN)C(=O)N[C@@H](Cc1c[nH]c2ccccc12)C(=O)N[C@@H](CCCCN)C(=O)N[C@@H](CCCCN)C(N)=O` [Formula (III)], for which the viability at 0.5 h, 100 µM in series [2] came out at 97.3%. For the same compound, the apoptotic cell death entry in series [3] (100 µM) is recorded as “limited rate of apoptotic cell death”. In series [3], the necrotic cell death entry is “no necrotic cell death was observed” and the toxicity result was “negligible toxicity”.
